Results: patent US6824928B2, “Organic borate compounds and the nonaqueous electrolytes and lithium secondary batteries using the compounds” (Hitachi, Ltd., priority 2000, dated 2004)
Where two headings read alike, the source gives them in different places.

Legend:
[1] = 1 M in PC; versus comparative example 8
[2] = 1 M in PC; platinum working electrode, lithium counter/reference; sweep 10 mV/sec
Excerpt: By use of these nonaqueous electrolytes, the respective oxidation decomposition potential values have been compared using the method described below.

[3] = for improvement of electroconductivity by factor: solvent A, versus lithium bis-salicylate borate (comparative example 1)
[4] = Electroconductivity in fluorinated solvent B (HFE7100/DMC 80:20); format: physicochemical; conditions: for concentration at which maximum electroconductivity was obtained / maximum electroconductivity / electroconductivity (result in words): solvent B: HFE7100/DMC 80:20; for improvement of electroconductivity: solvent B, versus LiN (SO2CF3)2
[5] = solvent B: HFE7100/DMC 80:20; salt dissolved to 0.1 M

Molecule | potential from which significant changes in oxidation current are observed (oxidation decomposition potential) [2] | concentration at which maximum electroconductivity was obtained ([3]; solvent A: PC/DMC 1:2) | maximum electroconductivity ([3]; solvent A: PC/DMC 1:2) | improvement of electroconductivity by factor [3] | concentration at which maximum electroconductivity was obtained [4] | maximum electroconductivity [4] | also measured
Tetraethyl Ammonium Tetrakis (Trifluoroacetate) Borate [AB1] | – | – | – | – | – | – | increase of potential window at the oxidation side [1]: 0.5 V
Lithium Tetrakis (Trichloroacetate) Borate [LB3] | 6.4 V | 0.5 M | 4.3 mS/cm | up to 10 | – | – | –
Lithium Tetrakis (Pentafluoropropanoate) Borate [LB2] | 6.5 V | 0.6 M | 5.8 mS/cm | up to 13.4 | 0.6 M | 1.7 mS/cm | improvement of electroconductivity [4]: 2.4 times
O=C(O[B-](OC(=O)C(F)(F)F)(OC(=O)C(F)(F)F)OC(=O)C(F)(F)F)C(F)(F)F.[Li+] [LB1, Lithium Tetrakis (Trifluoroacetate) Borate] | 6.7 V | 0.8 M | 7.8 mS/cm | up to 18 | 0.8 M | 1.55 mS/cm | improvement of electroconductivity [4]: 2.2 times
O=S(=O)([N-]S(=O)(=O)C(F)(F)F)C(F)(F)F.[Li+] [LiN (SO2CF3)2, lithium bis-(trifluoromethanesulfonyl)imide, reference compound] | 5.8 V | – | – | – | 1 M | 0.69 mS/cm | –
F[B-](F)(F)F.[Li+] [LiBF4, lithium tetrafluoroborate, reference compound] | – | – | – | – | – | – | electroconductivity (result in words) [4]: no electroconductivity has been measurable; phase behaviour of the solution [5]: the phase of the solvent has separated into two layers
lithium bis-benzenediolate [reference compound] | – | – | – | – | – | – | electroconductivity (result in words) [4]: no electroconductivity has been measurable
CC(=O)O[B-](OC(C)=O)(OC(C)=O)OC(C)=O.[Li+] [LB4, Lithium Tetrakis (Acetate) Borate] | – | – | – | – | – | – | electroconductivity of the nonaqueous electrolyte ([3]; solvent A: PC/DMC 1:2, at the dissolved concentration (about 0.1 M)): 0.02 mS/cm
